Measured values taken from the NIST ThermoML archive (doi:10.1016/j.jct.2014.10.021).
Numbers after ± are expanded uncertainties.

Test: mn = molality of the nth substance listed, in mol/kg
Conditions: 298.15 K, 101.33 kPa, Liquid, Alternating current cell with electrodes

CCCC[N+]1(C)CCCC1.O=S(=O)([O-])C(F)(F)C(F)(F)C(F)(F)C(F)(F)F [1-butyl-1-methylpyrrolidinium perfluorobutanesulfonate] + O
Conditions | electrical conductivity [S/m]
m1 = 0.004597 | 0.0233 ± 0.00047
m1 = 0.005016 | 0.0254 ± 0.00051
m1 = 0.005639 | 0.0279 ± 0.00056
m1 = 0.006033 | 0.0293 ± 0.00059
m1 = 0.006491 | 0.0311 ± 0.00062
m1 = 0.007025 | 0.0343 ± 0.00069
m1 = 0.007655 | 0.0363 ± 0.00073
m1 = 0.008405 | 0.0397 ± 0.00079
m1 = 0.00933 | 0.0447 ± 0.00089
m1 = 0.0105 | 0.0483 ± 0.00097
m1 = 0.012 | 0.0554 ± 0.0011
m1 = 0.01274 | 0.0584 ± 0.0012
m1 = 0.01401 | 0.0642 ± 0.0013
m1 = 0.01533 | 0.0697 ± 0.0014
m1 = 0.01608 | 0.0731 ± 0.0015
m1 = 0.01691 | 0.0769 ± 0.0015
m1 = 0.01784 | 0.0804 ± 0.0016

CCCCCCCCCCCCn1cc[n+](C)c1.O=S(=O)([O-])C(F)(F)C(F)(F)C(F)(F)C(F)(F)F [1-dodecyl-3-methylimidazolium perfluorobutanesulfonate] + O
Conditions | electrical conductivity [S/m]
m1 = 1.598e-05 | 0.00011 ± 1e-05
m1 = 2.066e-05 | 0.00016 ± 1e-05
m1 = 2.421e-05 | 0.00018 ± 1e-05
m1 = 2.925e-05 | 0.00022 ± 1e-05
m1 = 3.682e-05 | 0.0003 ± 1e-05
m1 = 4.977e-05 | 0.00041 ± 1e-05
m1 = 5.764e-05 | 0.00048 ± 1e-05
m1 = 7.583e-05 | 0.00063 ± 1e-05
m1 = 8.783e-05 | 0.0007 ± 2e-05
m1 = 0.0001043 | 0.00085 ± 2e-05
m1 = 0.0001122 | 0.00089 ± 2e-05
m1 = 0.0001213 | 0.00095 ± 2e-05
m1 = 0.000132 | 0.00101 ± 2e-05
m1 = 0.0001448 | 0.00109 ± 2e-05
m1 = 0.0001603 | 0.00118 ± 2e-05
m1 = 0.0001796 | 0.00129 ± 3e-05
m1 = 0.0001903 | 0.00136 ± 3e-05

CCCCCC[n+]1ccn(C)c1.O=S(=O)([O-])C(F)(F)C(F)(F)C(F)(F)C(F)(F)F [1-methyl-3-hexylimidazolium perfluorobutanesulfonate] + O
Conditions | electrical conductivity [S/m]
m1 = 0.0006843 | 0.0038 ± 8e-05
m1 = 0.001003 | 0.0055 ± 0.00011
m1 = 0.001271 | 0.0072 ± 0.00014
m1 = 0.001953 | 0.0108 ± 0.00022
m1 = 0.002415 | 0.0133 ± 0.00027
m1 = 0.002944 | 0.0163 ± 0.00033
m1 = 0.003168 | 0.0174 ± 0.00035
m1 = 0.00367 | 0.0201 ± 0.0004
m1 = 0.004364 | 0.0235 ± 0.00047
m1 = 0.004701 | 0.0252 ± 0.0005
m1 = 0.005473 | 0.0291 ± 0.00058
m1 = 0.006118 | 0.0323 ± 0.00065
m1 = 0.006443 | 0.0339 ± 0.00068
m1 = 0.007009 | 0.0367 ± 0.00073
m1 = 0.007312 | 0.0382 ± 0.00076
m1 = 0.007666 | 0.04 ± 0.0008
m1 = 0.007936 | 0.0413 ± 0.00083
m1 = 0.008317 | 0.0431 ± 0.00086
m1 = 0.008657 | 0.0448 ± 0.0009
m1 = 0.009459 | 0.0484 ± 0.00097
m1 = 0.009734 | 0.0497 ± 0.00099
m1 = 0.01004 | 0.051 ± 0.001
m1 = 0.01032 | 0.0523 ± 0.001
m1 = 0.01057 | 0.0535 ± 0.0011
m1 = 0.01151 | 0.0567 ± 0.0011
m1 = 0.01188 | 0.0581 ± 0.0012
m1 = 0.01244 | 0.0611 ± 0.0012
m1 = 0.01292 | 0.0624 ± 0.0013
m1 = 0.01353 | 0.0644 ± 0.0013
m1 = 0.01416 | 0.0668 ± 0.0013
m1 = 0.01452 | 0.069 ± 0.0014

CCCCCCCCn1cc[n+](C)c1.O=S(=O)([O-])C(F)(F)C(F)(F)C(F)(F)C(F)(F)F [1-methyl-3-octylimidazolium perfluorobutanesulfonate] + O
Conditions | electrical conductivity [S/m]
m1 = 0.0003013 | 0.0016 ± 3e-05
m1 = 0.0007028 | 0.0037 ± 7e-05
m1 = 0.001019 | 0.0054 ± 0.00011
m1 = 0.001249 | 0.0069 ± 0.00014
m1 = 0.00155 | 0.008 ± 0.00016
m1 = 0.001919 | 0.0102 ± 0.0002
m1 = 0.0022 | 0.0117 ± 0.00023
m1 = 0.002596 | 0.0136 ± 0.00027
m1 = 0.002912 | 0.0145 ± 0.00029
m1 = 0.003181 | 0.0157 ± 0.00031
m1 = 0.003623 | 0.017 ± 0.00034
m1 = 0.003988 | 0.0176 ± 0.00035
m1 = 0.004309 | 0.0183 ± 0.00037
m1 = 0.004701 | 0.0192 ± 0.00038
m1 = 0.005065 | 0.0202 ± 0.0004
m1 = 0.005333 | 0.0206 ± 0.00041
m1 = 0.005728 | 0.0209 ± 0.00042

CCCC[N+](CCCC)(CCCC)CCCC.O=S(=O)([O-])C(F)(F)C(F)(F)C(F)(F)C(F)(F)F [tetrabutylammonium perfluorobutanesulfonate] + O
Conditions | electrical conductivity [S/m]
m1 = 0.002247 | 0.0136 ± 0.00027
m1 = 0.002283 | 0.0138 ± 0.00028
m1 = 0.002308 | 0.0139 ± 0.00028
m1 = 0.002329 | 0.014 ± 0.00028
m1 = 0.002356 | 0.0142 ± 0.00028
m1 = 0.002375 | 0.0143 ± 0.00029
m1 = 0.002407 | 0.0145 ± 0.00029
m1 = 0.002447 | 0.0147 ± 0.00029
m1 = 0.002477 | 0.0148 ± 0.0003
m1 = 0.002494 | 0.0149 ± 0.0003
m1 = 0.002516 | 0.015 ± 0.0003
m1 = 0.002534 | 0.0151 ± 0.0003
